Data: patent publication US20210308089A1, “METHODS OF TREATING AND/OR PREVENTING VIRAL INFECTIONS AND/OR DISEASES CAUSED BY VIRUSES IN A SUBJECT IN NEED THEREOF” (priority 2020, published 2021)

Columns and labels:
Assay type in all cases: in vivo, human
[1] = test system: TG, non-HDL-C, LDL-C, HDL-C, Apo B, hs-CRP; test: REDUCE-IT: fasting lipid, lipoprotein and inflammatory markers over time
Source text: The key tertiary objectives for this study were to evaluate the effect of AMR101 4 g daily from baseline and percent change form baseline in fasting triglycerides and LDL-C. […]

[2] = test system: hs-CRP, D-dimer, ESR, blood counts, NLR, systemic immune-inflammation index; test: VASCEPA-COVID-19: inflammatory biomarkers, baseline to day 14 follow-up, IPE vs usual care
Protocol: This was a 14-day long, prospective, multi-site, two-armed, randomized, open-label study of approximately 100 individuals in Canada with a COVID-19-positive diagnosis or who have recently undergone testing for SARS-CoV-2. […] Blood samples are collected to determine if IPE use lowers circulating pro-inflammatory biomarkers.
Eligible patients were randomly allocated to the IPE group or the usual care group. Randomization was performed using envelope randomization via stratification using random permuted blocks. Patients allocated to the IPE group received a loading dose of 4 g IPE twice daily for 3 days followed by 2 g twice daily for 11 days. The usual care group received no intervention. Participant characteristics were obtained at baseline, while blood samples and clinical outcomes were obtained/measured at baseline and at follow-up.
The primary biomarker endpoint was the change in high-sensitivity C-reactive protein (hs-CRP) levels from baseline (day 1) to follow-up (day 14+3) within-groups. D-dimer, erythrocyte sedimentation rate (ESR), complete blood count, differential count, serum albumin levels, the neutrophil-to-lymphocyte ratio (NLR), and the systemic immune-inflammation index (defined by platelet count multiplied by NLR) from baseline to follow-up were secondary biomarker endpoints. The clinical endpoint was the change in InFLUenza Patient-Reported Outcome (FLU-PRO©) diary scores (total and domain breakdown). The FLU-PRO© score is designed to evaluate the presence, severity, and duration of influenza symptoms in clinical trials and standardize symptom assessment with respect to viral infections. The diary provides a comprehensive evaluation of symptomology over 32 distinct questions. Respondents answer on an ordinal scale from 0-4 across six domains: Body/Systemic, Chest/Respiratory, Eyes, Gastrointestinal, Nose, and Throat. The validity and reliability of the FLU-PRO© diary has been investigated. The ability to successfully adapt the measure for COVID-19 experimentation has also been explained (www.evidera.com/flu-pro/). […] Additional clinical endpoints included measuring FLU-PRO© symptom prevalence and investigating correlations between improvements in FLU-PRO© and decreases in hs-CRP levels.
Baseline characteristics, biomarkers, and clinical endpoints were described as frequencies and percentages (for categorical data) or medians with interquartile ranges (for continuous variables). Cohort comparisons were performed with the Wilcoxon Signed Rank (within-group), Mann-Whitney U (between group, continuous variables) or Fisher's Exact (between group, categorical variables) statistical tests. Within- and between-group p-values describing clinical (FLU-PRO©) score changes were conducted using a Wald test on least squares-mean estimated treatment difference, from an analysis of variance (ANOVA) model. Within- and between-group comparisons for the primary biomarker endpoint included median change from baseline. hs-CRP analyses were conducted with unadjusted and adjusted data (for sex, age [men <45 versus ≥45 years and women <55 versus ≥55 years], and baseline cardiovascular risk [absence or presence of cardiovascular comorbidities]). The model adjustments for baseline covariates were warranted based on current literature. Remaining unadjusted secondary biomarker data were evaluated via two-tailed within-group Wilcoxon Signed Rank Tests and between-group Mann-Whitney Tests. The prevalence and change from baseline total and individual domain FLU-PRO© scores were calculated as measures of alterations in symptom severity. Correlations between FLU-PRO© score improvement and hs-CRP reduction were calculated using the Spearman correlation coefficient. A p-value of less than 0.05 was considered significant without multiplicity adjustment, and all analyses were conducted using a modified intention-to-treat model.

[3] = test system: symptomatic COVID-19 outpatients with positive SARS-CoV-2 test; test: VASCEPA-COVID-19: FLU-PRO symptom prevalence and scores (and correlation with hs-CRP)
[4] = Year 1 (as headed in Table 18), 4 g/day
[5] = Year 1 (as headed in Table 18), vs placebo
[6] = 14 + 3 Days, n = 44, within-group P 0.07
[7] = 14 + 3 Days, n = 44, within-group P <0.01

Structure (SMILES): CC/C=C\C/C=C\C/C=C\C/C=C\C/C=C\CCCC(=O)OCC [icosapent ethyl, eicosapentaenoic acid ethyl ester]
- LDL cholesterol median change (increase) from baseline ([1]; 4 g/day): 0.05 mmol/L
- LDL-C derived median % change from baseline ([1]; Last Visit, 4 g/day, ITT): 3.1%
- LDL-C derived median absolute change from baseline ([1]; Last Visit, 4 g/day, ITT): 2.0 mg/dL
- Reduction in hs-CRP observed in patients from this trial ([1]; REDUCE-IT): 40%
- Apo B median [1, 4]: 80.0 mg/dL
- hs-CRP median [1, 4]: 1.8 mg/L
- Apo B median between group difference, % change from baseline [1, 5]: −9.7%
- Apo B median between group difference, absolute change from baseline [1, 5]: -8.0 mg/dL
- hs-CRP median between group difference, absolute change from baseline [1, 5]: -0.9 mg/L
- Triglycerides: median reduction from baseline greater than in placebo group (Hodges-Lehmann) ([1]; baseline to one year): 19.7%
- hs-CRP median, 14 + 3 Days ([2]; 14 + 3 Days, n = 44, IQR 0.6, 4.4): 1.6 mg/L
- SII (systemic immune-inflammation index, median), 14 + 3 Days ([2]; 14 + 3 Days, n = 44, product of NLR*platelets, within-group P <0.01): 4.319e+11 L⁻¹
- WBC Differential, Lymphocytes (median), 14 + 3 Days ([2]; 14 + 3 Days, n = 44, within-group P 0.01): 2.4e+09 L⁻¹
- MCV (median), 14 + 3 Days ([2]; 14 + 3 Days, n = 44, within-group P 0.03): 87.5 fL
- NLR (neutrophil-lymphocyte ratio, median), 14 + 3 Days [2, 6]: 1.6
- WBC Differential, Basophils (median), 14 + 3 Days [2, 6]: 0 L⁻¹
- WBC Differential, Eosinophils (median), 14 + 3 Days [2, 6]: 1e+08 L⁻¹
- WBC Differential, Monocytes (median), 14 + 3 Days ([2]; 14 + 3 Days, n = 44, within-group P 0.08): 6e+08 L⁻¹
- RDW (median), 14 + 3 Days ([2]; 14 + 3 Days, n = 44, within-group P 0.14): 12.5 % CV
- eGFR (median), 14 + 3 Days ([2]; 14 + 3 Days, n = 44, within-group P 0.17): 87.0 mL/min/1.73 m^2
- Lipid Assessment, Triglycerides (median), 14 + 3 Days ([2]; 14 + 3 Days, n = 44, within-group P 0.19): 1.5 mmol/L
- ESR (median), 14 + 3 Days ([2]; 14 + 3 Days, n = 44, within-group P 0.20): 15.5 mm/hr
- Creatinine (median), 14 + 3 Days ([2]; 14 + 3 Days, n = 44, within-group P 0.21): 73.5 µmol/L
- MCHC (median), 14 + 3 Days ([2]; 14 + 3 Days, n = 44, within-group P 0.22): 339.5 g/L
- MCH (median), 14 + 3 Days ([2]; 14 + 3 Days, n = 44, within-group P 0.40): 29.4 pg
- Albumin (median), 14 + 3 Days ([2]; 14 + 3 Days, n = 44, within-group P 0.88): 43.0 g/L
- HbA1C (median), 14 + 3 Days [2, 7]: 5.1%
- Hematocrit (median), 14 + 3 Days [2, 7]: 0.4 L/L
- Hemoglobin (median), 14 + 3 Days [2, 7]: 130.5 g/L
- Lipid Assessment, HDL-C (median), 14 + 3 Days [2, 7]: 1.2 mmol/L
- Lipid Assessment, LDL-C (median), 14 + 3 Days [2, 7]: 2.5 mmol/L
- Lipid Assessment, Non-HDL-C (median), 14 + 3 Days [2, 7]: 3.3 mmol/L
- Lipid Assessment, Total Cholesterol (median), 14 + 3 Days [2, 7]: 4.7 mmol/L
- Platelet (median), 14 + 3 Days [2, 7]: 2.615e+11 L⁻¹
- RBC Count (median), 14 + 3 Days [2, 7]: 4.7e+12 L⁻¹
- WBC Count (median), 14 + 3 Days [2, 7]: 7.3e+09 L⁻¹
- WBC Differential, Neutrophils (median), 14 + 3 Days [2, 7]: 3.9e+09 L⁻¹
- Albumin (median), Baseline ([2]; Baseline, n = 44): 44.0 g/L
- Creatinine (median), Baseline ([2]; Baseline, n = 44): 74.0 µmol/L
- D-dimer (median), Baseline ([2]; Baseline, n = 44): 324.0 µg/L
- ESR (median), Baseline ([2]; Baseline, n = 44): 18.0 mm/hr
- Erythrocyte Sedimentation Rate (median), Baseline ([2]; Baseline, n = 44): 18.0 mm/hour
- HbA1C (median), Baseline ([2]; Baseline, n = 44): 5.2%
- Hematocrit (median), Baseline ([2]; Baseline, n = 44): 0.4 L/L
- Hemoglobin (median), Baseline ([2]; Baseline, n = 44): 139.5 g/L
- Lipid Assessment, HDL-C (median), Baseline ([2]; Baseline, n = 44): 1.1 mmol/L
- Lipid Assessment, LDL-C (median), Baseline ([2]; Baseline, n = 44): 2.2 mmol/L
- Lipid Assessment, Non-HDL-C (median), Baseline ([2]; Baseline, n = 44): 3.2 mmol/L
- Lipid Assessment, Total Cholesterol (median), Baseline ([2]; Baseline, n = 44): 4.3 mmol/L
- Lipid Assessment, Triglycerides (median), Baseline ([2]; Baseline, n = 44): 1.4 mmol/L
- MCH (median), Baseline ([2]; Baseline, n = 44): 30.0 pg
- MCHC (median), Baseline ([2]; Baseline, n = 44): 338.0 g/L
- MCV (median), Baseline ([2]; Baseline, n = 44): 86.5 fL
- NLR (neutrophil-lymphocyte ratio, median), Baseline ([2]; Baseline, n = 44): 1.7
- Platelet (median), Baseline ([2]; Baseline, n = 44): 2.27e+11 L⁻¹
- RBC Count (median), Baseline ([2]; Baseline, n = 44): 4.9e+12 L⁻¹
- RDW (median), Baseline ([2]; Baseline, n = 44): 12.3 % CV
- WBC Count (median), Baseline ([2]; Baseline, n = 44): 6.1e+09 L⁻¹
- WBC Differential, Basophils (median), Baseline ([2]; Baseline, n = 44): 0 L⁻¹
- WBC Differential, Eosinophils (median), Baseline ([2]; Baseline, n = 44): 1e+08 L⁻¹
- WBC Differential, Lymphocytes (median), Baseline ([2]; Baseline, n = 44): 1.9e+09 L⁻¹
- WBC Differential, Monocytes (median), Baseline ([2]; Baseline, n = 44): 5e+08 L⁻¹
- WBC Differential, Neutrophils (median), Baseline ([2]; Baseline, n = 44): 3e+09 L⁻¹
- eGFR (median), Baseline ([2]; Baseline, n = 44): 86.0 mL/min/1.73 m^2
- hs-CRP median, Baseline ([2]; Baseline, n = 44, IQR 0.9, 11.6): 3.2 mg/L
- SII (systemic immune-inflammation index, median), Baseline ([2]; Baseline, n = 44, product of NLR*platelets): 3.398e+11 L⁻¹
- D-dimer (median), Day 14 + 3 ([2]; Day 14 + 3, n = 44, within-group P 0.048): 286.5 µg/L
- Erythrocyte Sedimentation Rate (median), Day 14 + 3 ([2]; Day 14 + 3, n = 44, within-group P 0.20): 15.5 mm/hour
- Median hs-CRP change at follow-up ([2]; baseline (day 1) to day 14+3, 8 g/day for 3 days, then 4 g/day for 11 days): -0.5 mg/L
- hs-CRP Median Change from Baseline ([2]; baseline to day 14 + 3, n = 44, IQR −6.9, 0.4, within-group P 0.011, between-group P 0.082 unadjusted, 0.043 adjusted): -0.5 mg/L
- hs-CRP Median Percent Change from Baseline ([2]; baseline to day 14 + 3, n = 44, IQR −80.1, 26.7): −25.0%
- hs-CRP reduction from baseline levels ([2]; baseline to day 14+3, within IPE group): 25%
- Total FLU-PRO symptom prevalence reduced by ([3]; 14+3-day follow-up): 52%
- Reduction in chest/respiratory symptoms (FLU-PRO prevalence) ([3]; baseline to follow-up): 69%
- Change in mean FLU-PRO score, total domain ([3]; baseline to follow-up, patients with non-zero treatment compliance): −0.16
